The target in assay [1] is T1, CCR5 (Homo sapiens, UniProt P51681). Briefly: CCR5-mediated CCF (cell-cell fusion) assay, Hela-R5 / CEM-NKr-CCR5-Luc luciferase readout. The class given is cell-based. Also on record: host or cells: CEM-NKr-CCR5-Luc cells, co-cultured with Hela-R5 cells expressing gp160 and Tat. To be noted: Hela-R5 and CEM-NKr-CCR5-Luc co-culture 24 hrs. The procedure:
The capacity for novel compounds of the present invention to bind to the CCR5 receptor and thereby antagonize CCR5 function can be evaluated with assay systems known in the art.
Hela-R5 cells (express gp160 from R5-tropic virus and HIV-1 Tat) were plated in 384 well white culture plates (BD Bioscience, Palo Alto, Calif.) at 7.5×10^3 cells per well in phenol red-free Dulbecco's Modified Eagle Medium (DMEM) supplemented with 10% FBS, 1× Pen-Strep, 300 μg/ml G418, 100 μg/ml hygromycin, and 1 μg/ml Doxycycline (Dox) (BD Bioscience, Palo Alto, Calif.), using Multimek (Beckman, Fullerton, Calif.) and incubated at 37° C. overnight to induce the expression of gp160. Ten μl diluted compounds in medium containing 5% DMSO were added to the cells, followed by the addition of CEM-NKr-CCR5-Luc (obtained from NIH AIDS Research & Reference Reagents Program) that expresses CD4 and CCR5 and carries a HIV-2 long terminal repeat (LTR)-driven luciferase reporter gene at 1.5×10^4 cells/15 μL/well and incubated for 24 hrs. At the end of co-culture, 15 μl of Steady-Glo luciferase substrate was added into each well, and the cultures were sealed and gently shaken for 45 min. The luciferase activity were measured for 10 sec per well as luminescence by using 16-channel TopCount NXT (PerkinElmer, Shelton, Conn.) with 10 min dark adaptation and the readout is count per second (CPS). For the drug interaction experiments, small molecule compounds or antibodies were serially diluted in serum-free and phenol red-free RPMI containing 5% dimethyl sulfoxide (DMSO) (CalBiochem, La Jolla, Calif.) and 1× Pen-Strep. Five μl each of the two diluted compound or mAb to be tested for drug-drug interactions were added to the Hela-R5 cells right before the addition of target cells.

Assay [2] has as its target T1, CCR5. The assay is described as follows: Human CCR5 receptor-ligand binding (RANTES) assay. Further details: expressed in transfected cells. To be noted: 125I RANTES 0.1 nM, CHO-Gα16-hCCR5 cells. The procedure:
The construct was transfected into CHO-Gα16 cells by using Fugene Reagent (Roche).
Adherent cells in […] tissue culture flask (˜90% confluent) were harvested using 1 mM EDTA in PBS (phosphate-buffered saline) without Ca^2+ and Mg^2+. Cells were washed twice with PBS containing no Ca^2+ and Mg^2+.
Eighty μl CHO-Gα16-hCCR5 (1×10^6/ml) cells were added to 96 well plates.
The compound dilutions were made in PBS, 1% BSA. Total reaction volume was 100 μl per well. The test compounds were added to the cells prior to the addition of radioligand.
After incubation, the cells were harvested onto GF/C filter plates using Packard cell harvester. Filters were pretreated with 0.3% PEI/0.2% BSA for 30 min. The filter plate was washed rapidly 5 times with 25 mM HEPES, 500 mM NaCl, 1 mM CaCl2 and 5 mM MgCl2 adjusted to pH 7.1. Plates were dried in oven (70° C.) for 20 min, added with 40 μl scintillation fluid and sealed with Packard TopSeal-A. Packard Top Count was used to measure of the radioactivity for 1 min per well.
Total binding was determined with control wells added with radioisotope and buffer and the non-specific binding was determined using an excess cold RANTES to some of the control wells. Specific binding was determined by subtracting the non-specific form total binding. […] IC50 values were determined using varying concentrations of the test ligand in triplicates and the data was analyzed using GraphPad Prism (GraphPad, San Diego, Calif.).

The subject of assay [3] is collagen induced arthritis. The conditions noted are these: collagen-induced arthritis model; cited from earlier work.
Assay [4] addresses T1, CCR5. The assay is described as follows: Chemotaxis assay with L1.2hCCR5 cells. The class given is cell-based. Further details: expressed in transfected cells. To be noted: Inhibition of RANTES stimulated chemotaxis. The text has this: A chemotaxis assay is a functional assay which measures the ability of a non-adherent cell line expressing human CCR5 receptor to migrate across a membrane in response to either test compounds or natural attractant ligand(s) (i.e., RANTES, MIP-1β). Generally, chemotaxis assays monitor the directional movement or migration of a suitable cell (such as a leukocyte (e.g., lymphocyte, eosinophil, basophil)) into or through a barrier (e.g., endothelium, a permeable filter membrane), toward, from a first surface of the barrier toward an opposite second surface containing attractant ligands. Membranes or filters provide convenient barriers to monitor the directional movement or migration of a suitable cell into or through a filter, toward increased levels of an attractant. […]
After the incubation period, the cells are scraped off the filter and the plates are spun in a table top centrifuge at 2,000 rpm for 10 min. The filter is then removed and the density of the cells that have migrated to the bottom wells is detected using CyQUANT^R cell proliferation assay kit (Invitrogen) and the Spectra MAX GeminiXS plate reader (Molecular Devices) according to the manufacturers' instructions. Using the fluorescence measurements the percent migration is determined by % migration=[1−(max−obs)/(max−min)]×100. […] This is calculated with Excel Fit.

Broadly, the IC50 is the concentration that gives 50% inhibition. A lower IC50 goes with inhibition by little substance.

T1 sequence (P51681 whole entry, the tested form may be a part): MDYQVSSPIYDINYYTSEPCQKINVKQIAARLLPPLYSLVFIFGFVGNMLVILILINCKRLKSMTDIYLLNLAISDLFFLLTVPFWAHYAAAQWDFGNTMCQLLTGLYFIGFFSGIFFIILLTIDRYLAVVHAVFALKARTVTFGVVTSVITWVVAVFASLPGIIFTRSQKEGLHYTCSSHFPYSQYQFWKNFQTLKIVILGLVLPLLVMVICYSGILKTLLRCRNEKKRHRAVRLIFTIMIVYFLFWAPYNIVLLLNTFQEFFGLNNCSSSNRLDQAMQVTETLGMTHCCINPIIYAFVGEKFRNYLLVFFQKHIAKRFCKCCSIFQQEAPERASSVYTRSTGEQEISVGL

Take `Cc1ncnc(C)c1C(=O)N1CC2CN(CCC(c3ccccc3)C3CN(C(=O)C(C)C)C3)CC2C1` (stereo not shown) [IV-10]: the IC50 worked out at 458 nM on CCR5 [1] and 244 nM at CCR5 [2].
The corresponding values for `Cc1ncnc(C)c1C(=O)N1CC2CN(CCC(c3cccc(F)c3)C3CN(S(=O)(=O)c4cccc(F)c4)C3)CC2C1` (stereo not shown) [IV-14] are 4.2 nM and 38.6 nM.
Consider `Cc1ccc(-c2ccc3c(c2)C=C(C(=O)Nc2ccc(C[N+](C)(C)C4CCOCC4)cc2)CCC3)cc1.[Cl-]` [TAK-779], for which, in assay [3], the “incidence and severity of arthritis” value was “reduce both the incidence and severity of arthritis”; the “infiltration of inflammatory CCR5+ T-cells into the joint” value is listed as “inhibited”.
For `Cc1ncnc(C)c1C(=O)N1CC2CN(CCC(c3ccccc3)C3CCN(S(C)(=O)=O)CC3)CC2C1` (stereo not shown) [V-12], it took 765 nM to reach half-maximal inhibition on CCR5 [4] (IC50).
For `Cc1ncnc(C)c1C(=O)N1CC2CN(CCC3(c4cccc(F)c4)CCN(C(=O)c4cccc(S(=O)(=O)N(C)C)c4)CC3)CC2C1` (stereo not shown) [I-19], the IC50 at CCR5 [1] turned out to be 393 nM; at CCR5 [2], 50.9 nM.
Consider `Cc1ncnc(C)c1C(=O)N1CC2CN(CCC3(c4ccccc4)CCN(C(=O)c4cccc(S(=O)(=O)N(C)C)c4)CC3)CC2C1` (stereo not shown) [I-14], for which the IC50 on CCR5 [1] stood at 1200 nM; on CCR5 [2] it was 48.4 nM.
Turning to `COC(=O)N1CCC(C(CCN2CC3CN(C(=O)c4c(C)ncnc4C)CC3C2)c2ccccc2)CC1` (stereo not shown) [V-7, 4-{3-[5-(4,6-Dimethyl-pyrimidine-5-carbonyl)-hexahydro-pyrrolo[3,4-c]pyrrol-2-yl]-1-phenyl-propyl}-piperidine-1-carboxylic acid methyl ester], the 50% inhibitory concentration (IC50) at CCR5 [1] is 744 nM; on CCR5 [2], 102 nM.
`Cc1ncnc(C)c1C(=O)N1CC2CN(CCC3(c4ccccc4)CN(C(=O)C4CCC(F)(F)CC4)C3)CC2C1` (stereo not shown) [II-39]: the IC50 at CCR5 [1] was 9.5 nM; on CCR5 [2], 18.8 nM.
The corresponding values for `Cc1cc(=O)oc(C)c1C(=O)N1CC2CN(CCC3(c4ccccc4)CN(C(=O)C4CCC(F)(F)CC4)C3)CC2C1` (stereo not shown) [II-33] are 2.6 nM and 11.3 nM.
The corresponding values for `Cc1ncnc(C)c1C(=O)N1CC2CN(CCC3(c4ccccc4)CCN(C(=O)c4ccc(S(N)(=O)=O)cc4)CC3)CC2C1` (stereo not shown) [I-9] are 2500 nM and 500 nM.
Consider `Cc1ncnc(C)c1C(=O)N1CC2CN(CCC3(c4ccccc4)CCN(C(=O)OC(C)(C)C)CC3)CC2C1` (stereo not shown) [I-1, tert-Butyl 4-{2-[5-(4,6-dimethyl-pyrimidine-5-carbonyl)-hexahydro-pyrrolo[3,4-c]pyrrol-2-yl]-ethyl}-4-phenyl-piperidine-1-carboxylate], for which the IC50 on CCR5 [1] and on CCR5 [2] was 835 nM in each case.
For `Cc1ncnc(C)c1C(=O)N1CC2CN(CCC3(c4ccccc4)CN(C(=O)C4(C(F)(F)F)CC4)C3)CC2C1` (stereo not shown) [II-15], the IC50 came to 486 nM against CCR5 [1] and 51.5 nM on CCR5 [2].
On to `Cc1ncnc(C)c1C(=O)N1CC2CN(CCC3(c4ccccc4)CN(C(=O)CC4CCCC4)C3)CC2C1` (stereo not shown) [II-6], for which the 50% inhibitory concentration (IC50) worked out at 136 nM on CCR5 [1] and 27.7 nM on CCR5 [2].
As for “1-(4-{3-[5-(4,6-Dimethyl-pyrimidine-5-carbonyl)-hexahydro-pyrrolo[3,4-c]pyrrol-2-yl]-1-phenyl-propyl}-piperidin-1-yl)-2-methyl-propan-1-one [V-15]”, the concentration for half-maximal inhibition (IC50) against CCR5 [1] stood at 202 nM; on CCR5 [2], 8.2 nM.
On CCR5 [2], `Cc1ncnc(C)c1C(=O)N1CC2CN(CCC3(c4ccccc4)CN(S(=O)(=O)C(C)C)C3)CC2C1` (stereo not shown) [II-19] registered a 50% inhibitory concentration (IC50) of 105 nM.
Consider `Cc1ncnc(C)c1C(=O)N1CC2CN(CCC3(c4ccccc4)CN(S(=O)(=O)C4CCCC4)C3)CC2C1` (stereo not shown) [II-22, {5-[2-(1-Cyclopentanesulfonyl-3-phenyl-azetidin-3-yl)-ethyl]-hexahydro-pyrrolo[3,4-c]pyrrol-2-yl}-(4,6-dimethyl-pyrimidin-5-yl)-methanone], for which the IC50 came to 458 nM on CCR5 [1] and 27.1 nM on CCR5 [2].
Consider `Cc1cc(C#N)nc(C)c1C(=O)N1CC2CN(CCC3(c4ccccc4)CCN(C(=O)C(C)(C)C)C3)CC2C1` (stereo not shown) [III-8], for which the values for the IC50 against CCR5 [1] and on CCR5 [2] were 360 nM and 68.8 nM, respectively.
The corresponding values for `Cc1ncnc(C)c1C(=O)N1CC2CN(CCC3(c4cccc(F)c4)CCN(C(=O)c4ccccc4)CC3)CC2C1` (stereo not shown) [I-3] are 306 nM and 77.6 nM.

Values taken from patent publication US7625905B2, “Octahydro-pyrrolo[3,4-c]pyrrole CCR5 receptor antagonists” (Roche Palo Alto LLC, priority 2006, dated 2009).
